Reference: patent US9758492B2, “IDO inhibitors” (Bristol-Myers Squibb Company, priority 2013, dated 2017)
Blank lines part the entries; values can stand above or below the compound they belong to.

Experiments:
[1] = target: T1, IDO (Homo sapiens, UniProt P14902); test: Kynurenine assay in Hela cells stimulated with IFN-γ to express IDO; format: cell-based; parameters: endogenous in cells; host or cells: HeLa (ATCC CCL-2), stimulated with human recombinant IFN-gamma; conditions: 20 h, read-out: Hela Kyurenine (IC50)
T1 sequence (P14902 whole entry): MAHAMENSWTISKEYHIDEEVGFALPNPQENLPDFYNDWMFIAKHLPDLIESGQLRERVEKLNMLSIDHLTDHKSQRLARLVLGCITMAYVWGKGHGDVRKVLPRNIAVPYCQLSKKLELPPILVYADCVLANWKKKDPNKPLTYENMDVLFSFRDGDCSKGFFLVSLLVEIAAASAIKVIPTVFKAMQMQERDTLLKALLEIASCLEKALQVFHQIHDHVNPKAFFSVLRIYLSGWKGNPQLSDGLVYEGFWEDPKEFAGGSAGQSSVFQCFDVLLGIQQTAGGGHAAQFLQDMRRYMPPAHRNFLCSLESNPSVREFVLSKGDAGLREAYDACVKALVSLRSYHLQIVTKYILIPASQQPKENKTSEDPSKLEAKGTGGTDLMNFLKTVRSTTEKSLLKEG
Method: IFNg (R&D, 28-IF-100)—resuspend at 10 ug/mL in PBS with 0.1% BSA 30% TCA
Ehrlich reagent (2% w/v p-dimethylaminobenzaldehyde in glacial acetic acid)
Cell Titer 96 Aqueous Non-Radioactive Cell Proliferation Assay, MTS (Promega, Cat # G5430)
Cell Lines and Culture Conditions
Hela cancer cell lines were acquired from the American Type Culture Collection. Cells were maintained in phenol red free-RPMI1640 medium containing high glucose and L-glutamine (Invitrogen) supplemented with 10% fetal bovine serum (FBS; Invitrogen). Cell cultures were incubated at 37° C., 5% CO2, and 100% humidity.
Cell Treatment and Kynurenine Assay
Hela cells were seeded on 96-well plates (40,000 cells per well) and allowed to adhere for 5-6 hours. Cells were then treated with vehicle (DMSO) or with IDO inhibitor at a top dose of 30 μM (3-fold dilution all the way down to 1.5 nM). A final concentration of 100 ng/mL of human recombinant IFN-γ (R&D, 28-IF-100) was immediately added to the cells to stimulate IDO expression. Treated cells were then incubated for 20 hours at 37° C. At the end of the 20 h incubation, reactions were terminated by the addition of 30% TCA to each well. Plates were incubated for 30 minutes at 50° C. to hydrolyze N-formylkynurenine to kynurenine. Cells were centrifuged 10 minutes at 2400 rpm. 100 ul of supernatants were transferred to new 96 flat well plates and mixed with 100 ul Ehrlich reagent. The resulting solution was incubated 10 minutes at RT. Absorbance at 490 nm was read using Spectra Max 384 (Molecular Devices).

[2] = target: T1, IDO; test: LLE_IDO_ABS_DR (IDO assay)
[3] = target: T2, Human IDO1 (Homo sapiens, UniProt P14902); test: IDO Kynurenine Assay with Human IDO1/HEK293 Cells; format: cell-based; conditions: read-out: HEK human IDO-1 (IC50)
T2 construct: expressed in transfected cells; host or cells: HEK293
T2 sequence (P14902 whole entry): as above
Outline: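 HEK293 cells stably expressing human IDO1, in phenol red-free RPMI/10% FBS, exposed to compound for 20 h at 37 °C. Stopped with 0.2% TCA (50 °C, 30 min); kynurenine in supernatant detected with Ehrlich reagent, absorbance 490 nm.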

Structure (SMILES): CN(c1ccc(-c2ccccc2-c2nnn[nH]2)cc1NC(=O)Nc1ccc(C(F)(F)F)cc1)C1CCCCC1 [Example 2, 1-(4-(Cyclohexyl(methyl)amino)-2′-(1H-tetrazol-5-yl)biphenyl-3-yl)-3-(4-(trifluoromethyl)phenyl)urea]
IC50 [1]: 20 nM
IC50 [2]: 90 nM

Structure (SMILES): Cc1ccc(NC(=O)Nc2cc(-c3ccccc3-c3nnn[nH]3)ccc2N(C)C2CCCC2)cc1 [Example 3, 1-(4-(Cyclopentyl(methyl)amino)-2′-(1H-tetrazol-5-yl)biphenyl-3-yl)-3-p-tolylurea]
IC50 [1]: 10 nM
IC50 [2]: 60 nM

Structure (SMILES): CN(c1ncc(-c2ccccc2-c2nnn[nH]2)cc1NC(=O)Nc1ccccc1F)C1CCCCC1 [Example 37, 1-(5-(2-(1H-Tetrazol-5-yl)phenyl)-2-(cyclohexyl(methyl)amino)pyridin-3-yl)-3-(2-fluorophenyl)urea]
IC50 [1]: 10 nM
IC50 [2]: 40 nM

Structure (SMILES): COc1ccc(-c2ccc(N(C)C3CCCCC3)c(NC(=O)Nc3ccccc3Cl)c2)cc1C(=O)O [Example 42, 3′-(3-(2-chlorophenyl)ureido)-4′-(cyclohexyl(methyl)amino)-4-methoxybiphenyl-3-carboxylic acid]
IC50 [1]: 1170 nM

Structure (SMILES): COc1ccc(-c2ccc(N(C)C3CCCCC3)c(NC(=O)Nc3ccc(C)cc3)c2)cc1C(=O)O [Example 43, 4′-(cyclohexyl (methyl)amino)-4-methoxy-3′-(3-p-tolylureido)biphenyl-3-carboxylic acid]
IC50 [1]: 1430 nM

Structure (SMILES): CN(c1ccc(-c2ccccc2-c2nnn[nH]2)cc1NC(=O)Nc1ccccc1Cl)C1CCCCC1 [Example 45, 1-(2-chlorophenyl)-3-(4-(cyclohexyl (methyl)amino)-2′-(1H-tetrazol-5-yl)biphenyl-3-yl)urea]
IC50 [1]: 10 nM
IC50 [2]: 60 nM

Structure (SMILES): Cc1ccc(NC(=O)Nc2cc(-c3ccccc3-c3nnn[nH]3)ccc2NC2CCCCC2)cc1 [Example 46, 1-(4-(cyclohexylamino)-2′-(1H-tetrazol-5-yl)biphenyl-3-yl)-3-p-tolylurea]
IC50 [1]: 90 nM
IC50 [2]: 130 nM

Structure (SMILES): Cc1ccc(NC(=O)Nc2cc(-c3ccccc3-c3nnn[nH]3)ccc2N2CCC[C@@H]3CCCC[C@@H]32)cc1 [Example 47, 1-(4-((4aS,8aS)-octahydroquinolin-1(2H)-yl)-2′-(1H-tetrazol-5-yl)biphenyl-3-yl)-3-p-tolylurea]
IC50 [1]: 10 nM
IC50 [2]: 40 nM

Structure (SMILES): Cc1ccc(NC(=O)Nc2cc(-c3ccccc3C(=O)O)ccc2NC2CCCCC2)cc1 [Example 48, 4′-(cyclohexyl-amino)-3′-(3-p-tolylureido)biphenyl-2-carboxylic acid]
IC50 [1]: 850 nM
IC50 [2]: 500 nM

Structure (SMILES): Cc1ccc(NC(=O)Nc2cc(-c3ccccc3C(=O)O)ccc2N2CCC[C@@H]3CCCC[C@@H]32)cc1 [Example 49, 4′-((4aS,8aS)-octahydroquinolin-1(2H)-yl)-3′-(3-p-tolylureido)biphenyl-2-carboxylic acid]
IC50 [1]: 180 nM
IC50 [2]: 160 nM

Structure (SMILES): Cc1ccc(NC(=O)Nc2cc(-c3ccccc3-c3nnn[nH]3)ccc2N(C)C2CCOCC2)cc1 [Example 50, 1-(4-(methyl(tetra-hydro-2H-pyran-4-yl)amino)-2′-(1H-tetrazol-5-yl)biphenyl-3-yl)-3-p-tolylurea]
IC50 [1]: 60 nM
IC50 [2]: 310 nM

Structure (SMILES): Cc1ccc(NC(=O)Nc2cc(-c3ccccc3C(=O)O)ccc2N(C)C2CCOCC2)cc1 [Example 51, 4′-(methyl(tetra-hydro-2H-pyran-4-yl)amino)-3′-(3-p-tolylureido)biphenyl-2-carboxylic acid]
IC50 [1]: 2130 nM

Structure (SMILES): COC(CN(C)c1ccc(-c2ccccc2C(=O)O)cc1NC(=O)Nc1ccc(C)cc1)OC [Example 54, 4′-((2,2-dimethoxyethyl) (methyl)amino)-3′-(3-p-tolylureido) biphenyl-2-carboxylic acid]
IC50 [1]: 80 nM
IC50 [2]: 300 nM

Structure (SMILES): Cc1ccc(NC(=O)Nc2cc(-c3cc(F)ccc3C(=O)O)ccc2N2CCCc3ccccc32)cc1 [Example 373, 4′-(3,4-Dihydroquinolin-1(2H)-yl)-5-fluoro-3′-(3-(p-tolyl)ureido)-[1,1′-biphenyl]-2-carboxylic acid]
IC50 [2]: 3340 nM
IC50 [3]: 4000 nM

Structure (SMILES): Cc1ccc(NC(=O)Nc2cc(-c3ccccc3C(=O)O)ccc2N(CC(C)C)C2CCOCC2)cc1 [Example 378]
IC50 [2]: 60 nM
IC50 [3]: 70 nM

Structure (SMILES): Cc1ccc(NC(=O)Nc2cc(-c3ccccc3-c3nnn[nH]3)ccc2N(CC(C)C)C2CCOCC2)cc1 [Example 379]
IC50 [2]: 20 nM
IC50 [3]: 30 nM

Structure (SMILES): Cc1ccc(NC(=O)Nc2cc(-c3cc(F)ccc3C(=O)O)ccc2N(CC(C)C)CC2CC(F)(F)C2)cc1 [Example 380]
IC50 [2]: 50 nM
IC50 [3]: 70 nM

Structure (SMILES): Cc1cc(NC(=O)Nc2cc(-c3ccccc3-c3nnn[nH]3)ccc2N(CC(C)C)CC2CC(F)(F)C2)on1 [Example 382]
IC50 [2]: 500 nM
IC50 [3]: 350 nM

Structure (SMILES): Cc1ccc(NC(=O)Nc2cc(-c3ccccc3-c3nnn[nH]3)ccc2N2C[C@@H]3C[C@H]2CN3c2ccc(F)cc2)cc1 [Example 383]
IC50 [2]: 70 nM
IC50 [3]: 130 nM

Structure (SMILES): CC(C)CN(CC1CC(F)(F)C1)c1ccc(-c2ccccc2-c2nnn[nH]2)cc1NC(=O)Nc1cc(C(C)C)no1 [Example 384]
IC50 [2]: 1640 nM
IC50 [3]: 1890 nM

Structure (SMILES): C=C(C)CN(CC(F)(F)F)c1ccc(-c2cc(F)ccc2C(=O)O)cc1NC(=O)Nc1ccc(C)cc1 [Example 473]
IC50 [2]: 70 nM
IC50 [3]: 60 nM

Structure (SMILES): CC(C)CN(c1ccc(-c2ccccc2-c2nnn[nH]2)cc1NC(=O)Nc1ccc(OC(F)(F)F)cc1)C1CCC(F)(F)CC1 [Example 514, 1-(4((4,4-Difluorocyclohexyl)(isobutyl)amino)-2′-(1H-tetrazol-5-yl)-[1,1′-biphenyl]-3-yl)-3-(4-(trifluoromethoxy)phenyl)urea]
IC50 [2]: 10 nM
IC50 [3]: 20 nM

More lines, in order of falling IC50 [2], values ahead:

IC50 [1]: 5.57 nM
IC50 [2]: 10 nM
Structure (SMILES): Cc1ccc(NC(=O)Nc2cc(-c3ccccc3C(=O)O)ccc2N(CC(C)C)CC(C)C)cc1 [Example 52, 4′-(diisobutyl-amino)-3′-(3-p-tolylureido) biphenyl-2-carboxylic acid]

IC50 [2]: 10 nM
IC50 [3]: 9.13 nM
Structure (SMILES): C=C(C)CN(CC(F)(F)F)c1ccc(-c2ccccc2-c2nnn[nH]2)cc1NC(=O)Nc1ccc(C)cc1 [Example 472]

IC50 [1]: 1.72 nM
IC50 [2]: 7.93 nM
Structure (SMILES): Cc1ccc(NC(=O)Nc2cc(-c3ccccc3-c3nnn[nH]3)ccc2N(C)C2CCCCC2)cc1 [Example 44, 1-(4-(cyclohexyl (methyl)amino)-2′-(1H-tetrazol-5-yl)biphenyl-3-yl)-3-p-tolylurea]

IC50 [2]: 6.12 nM
IC50 [3]: 7.33 nM
Structure (SMILES): Cc1ccc(NC(=O)Nc2cc(-c3cc(F)ccc3-c3nnn[nH]3)ccc2N(CC(C)C)CC(C)C)cc1 [Example 483]

IC50 [2]: 5.01 nM
IC50 [3]: 20 nM
Structure (SMILES): Cc1ccc(NC(=O)Nc2cc(-c3ccccc3-c3nnn[nH]3)ccc2N(CCC(F)(F)F)Cc2ccc(F)cc2C(F)(F)F)cc1 [Example 502, 1-(4-((4-fluoro-2-(trifluoromethyl)benzyl)(3,3,3-trifluoropropyl)amino)-2′-(1H-tetrazol-5-yl)-[1,1′-biphenyl]-3-yl)-3-(p-tolyl)urea]

IC50 [1]: 0.772 nM
IC50 [2]: 3.45 nM
Structure (SMILES): CCN(c1ccc(-c2ccccc2-c2nnn[nH]2)cc1NC(=O)Nc1ccccc1F)C1CCCCC1 [Example 53, 1-(4-(cyclohexyl (ethyl)amino)-2′-(1H-tetrazol-5-yl)biphenyl-3-yl)-3-(2-fluorophenyl) urea]

IC50 [2]: 2.88 nM
IC50 [3]: 50 nM
Structure (SMILES): Cc1ccc(NC(=O)Nc2cc(-c3ccccc3C(=O)O)ccc2N(CC(C)C)C2CCC(F)(F)CC2)cc1 [Example 512, 4′-((4,4-Difluorocyclohexyl)(isobutyl)amino)-3′-(3-(p-tolyl)ureido)-[1,1′-biphenyl]-2-carboxylic acid]

IC50 [2]: 2.5 nM
IC50 [3]: 10 nM
Structure (SMILES): CC(C)CN(CC(C)C)c1ccc(-c2cc(F)ccc2-c2nnn[nH]2)cc1NC(=O)Nc1ccccc1F [Example 484]

IC50 [2]: 2.24 nM
IC50 [3]: 10 nM
Structure (SMILES): O=C(Nc1ccc(OC(F)(F)F)cc1)Nc1cc(-c2ccccc2-c2nnn[nH]2)ccc1N(CCC(F)(F)F)Cc1ccc(OC(F)(F)F)cc1 [Example 503, 1-(2′-(1H-Tetrazol-5-yl)-4-((4-(trifluoromethoxy)benzyl)(3,3,3-trifluoropropyl)amino)-[1,1′-biphenyl]-3-yl)-3-(4-(trifluoromethoxy)phenyl)urea]

IC50 [2]: 0.4 nM
IC50 [3]: 5.14 nM
Structure (SMILES): O=C(Nc1ccc(F)cc1F)Nc1cc(-c2ccccc2-c2nnn[nH]2)ccc1N(CCC(F)(F)F)Cc1ccc(OC(F)(F)F)cc1 [Example 504, 1-(2′-(1H-Tetrazol-5-yl)-4-((4-(trifluoromethoxy)benzyl)(3,3,3-trifluoropropyl)amino)-[1,1′-biphenyl]-3-yl)-3-(2,4-difluorophenyl)urea]
